Each structure is given as a SMILES string.

By EC50 is commonly meant the midpoint of the concentration-response curve. A high value points to weaker potency.

For the experiment, the system named is Aβ42 secretion. The experiment can be described thus: Cellular γ-secretase assay (inhibition of Aβ42 secretion). Format: cell-based. As to conditions: Homo sapiens, 22 h, human neuroglioma H4 cells overexpressing human APP, 22 hours incubation. The protocol:
Cellular γ-Secretase Assay
The compounds were investigated in accordance with the test given hereinafter.
Human neuroglioma H4 cells overexpressing human APP were plated at 30,000 cells/well/200 μL in 96-well plates in IMDM media containing 10% FCS, […] Hygromycin B and incubated for 2 hours at 37° C., 5% CO2 prior to adding test compounds.
Compounds for testing were dissolved in 100% Me2SO yielding in a 10 mM stock solution. Typically 12 μL of these solutions were further diluted in 1000 μL of IMDM media (w/o FCS). Subsequent 1:1 dilutions gave a ten point dose response curve. 100 μL of each dilution was added to the cells in 96-well plates. Appropriate controls using vehicle only and reference compound were applied to this assay. The final concentration of Me2SO was 0.4%.
After incubation for 22 hours at 37° C., 5% CO2, 50 μL supernatant was transferred into round-bottom 96-well polypropylene plates for detection of Aβ42. 50 μL assay buffer (50 mM Tris/Cl, pH 7.4, 60 mM NaCl, 0.5% BSA, 1% TWEEN 20) was added to the wells followed by the addition of 100 μL of detection antibody (ruthenylated BAP15 0.0625 μg/mL in assay buffer). 50 μL of a premix of capture antibody (biotinylated 6E10 antibody, 1 μg/mL) and Streptavidin-coated magnetic beads (Dynal M-280, 0.125 mg/mL) were preincubated for 1 hour at room temperature before adding the assay plates. Assay plates were incubated on a shaker for 3 hours at room temperature and finally read in the Bioveris M8 Analyser according to the manufacturer's instructions (Bioveris).
IC50 values for inhibition of Aβ42 secretion were calculated by nonlinear regression fit analysis using XLfit 4.0 software (IDBS).
Consider `CC(C)C(=O)N1CCCC(c2ccc3[nH]c(C(=O)Nc4cc(F)cc(F)c4)cc3c2)C1` (stereo not drawn) [Example 51, 5-(1-Isobutyryl-piperidin-3-yl)-1H-indole-2-carboxylic acid (3,5-difluoro-phenyl)-amide], for which the EC50 was 0.263 µM.
`CC(=O)N1CCCC(c2ccc3[nH]c(C(=O)Nc4cc(F)cc(F)c4)cc3c2)C1` (stereo not drawn) [Example 52, 5-(1-Acetyl-piperidin-3-yl)-1H-indole-2-carboxylic acid (3,5-difluoro-phenyl)-amide] gave a 50% effective concentration (EC50) of 0.273 µM.
`O=C(Nc1cc(F)cc(F)c1)c1cc2cc(C3CCCN(S(=O)(=O)c4ccccc4)C3)ccc2[nH]1` (stereo not drawn) [Example 53, 5-(1-Benzenesulfonyl-piperidin-3-yl)-1H-indole-2-carboxylic acid (3,5-difluoro-phenyl)-amide] returned an EC50 of 0.392 µM.
In turn, `O=C(Nc1cc(F)cc(F)c1)c1cc2cc(C3CCCN(C(=O)C4CC4)C3)ccc2[nH]1` (stereo not drawn) [Example 54, 5-(1-Cyclopropanecarbonyl-piperidin-3-yl)-1H-indole-2-carboxylic acid (3,5-difluoro-phenyl)-amide] returned an EC50 of 0.403 µM.
In the case of `O=C(Nc1cc(F)cc(F)c1)c1cc2cc(C3CCCN(C(=O)c4ccccc4)C3)ccc2[nH]1` (stereo not drawn) [Example 55, 5-(1-Benzoyl-piperidin-3-yl)-1H-indole-2-carboxylic acid (3,5-difluoro-phenyl)-amide], the 50% effective concentration (EC50) came to 0.449 µM.
With `O=C(Nc1cc(F)cc(F)c1)c1cc2cc(C3CCCN(S(=O)(=O)C4CC4)C3)ccc2[nH]1` (stereo not drawn) [Example 56, 5-(1-Cyclopropanesulfonyl-piperidin-3-yl)-1H-indole-2-carboxylic acid (3,5-difluoro-phenyl)-amide] the figure was 0.466 µM.
Regarding `COCC(=O)N1CCCC(c2ccc3[nH]c(C(=O)Nc4cc(F)cc(F)c4)cc3c2)C1` (stereo not drawn) [Example 57, 5-[1-(2-Methoxy-acetyl)-piperidin-3-yl]-1H-indole-2-carboxylic acid (3,5-difluoro-phenyl)-amide], the concentration for a half-maximal effect (EC50) was 0.668 µM.
`Cn1cnc(S(=O)(=O)N2CCCC(c3ccc4[nH]c(C(=O)Nc5cc(F)cc(F)c5)cc4c3)C2)c1` (stereo not drawn) [Example 58, 5-[1-(1-Methyl-1H-imidazole-4-sulfonyl)-piperidin-3-yl]-1H-indole-2-carboxylic acid (3,5-difluoro-phenyl)-amide] gave a concentration giving a half-maximal response (EC50) of 0.744 µM.
`CN1CCCC(c2ccc3[nH]c(C(=O)Nc4cc(F)cc(F)c4)cc3c2)C1` (stereo not drawn) [Example 59, 5-(1-Methyl-piperidin-3-yl)-1H-indole-2-carboxylic acid (3,5-difluoro-phenyl)-amide] had an EC50 of 0.183 µM.
With `COCCN1CCCC(c2ccc3[nH]c(C(=O)Nc4cc(F)cc(F)c4)cc3c2)C1` (stereo not drawn) [Example 60, 5-[1-(2-Methoxy-ethyl)-piperidin-3-yl]-1H-indole-2-carboxylic acid (3,5-difluoro-phenyl)-amide] the figure was 1.38 µM.
The compound `O=C(Nc1cc(F)cc(F)c1)c1cc2cc(C3CCCNC3)ccc2[nH]1` (stereo not drawn) [Example 62, 5-Piperidin-3-yl-1H-indole-2-carboxylic acid (3,5-difluoro-phenyl)-amide] yielded an EC50 of 0.354 µM.
Compound `CC(C)N1CCN(c2ccc3[nH]c(C(=O)Nc4ccc(F)c(F)c4)cc3c2)CC1` [Example 63, 5-(4-Isopropyl-piperazin-1-yl)-1H-indole-2-carboxylic acid (3,4-difluoro-phenyl)-amide] registered an EC50 of 0.614 µM.
The compound `CC(C)N1CCC(Nc2ccc3[nH]c(C(=O)Nc4ccc(F)c(F)c4)cc3c2)CC1` [Example 65, 5-(1-Isopropyl-piperidin-4-ylamino)-1H-indole-2-carboxylic acid (3,4-difluoro-phenyl)-amide] gave an EC50 of 2.95 µM.
For `COCCN1CCCC(c2ccc3[nH]c(C(=O)Nc4cccc(F)c4)cc3c2)C1` (stereo not drawn) [Example 66, N-(3-Fluorophenyl)-5-(1-(2-methoxyethyl)piperidin-3-yl)-1H-indole-2-carboxamide], a half-maximal response (EC50) required 0.727 µM.
In turn, `O=C(Nc1cccc(F)c1)c1cc2cc(C3CCCN(CCO)C3)ccc2[nH]1` (stereo not drawn) [Example 67, N-(3-Fluorophenyl)-5-(1-(2-hydroxyethyl)piperidin-3-yl)-1H-indole-2-carboxamide] displayed an EC50 of 0.657 µM.
As for `O=C(Nc1cccc(F)c1)c1cc2cc(C3CCCN(CC4CCCO4)C3)ccc2[nH]1` (stereo not drawn) [Example 68, N-(3-Fluorophenyl)-5-(1-((tetrahydrofuran-2-yl)methyl)piperidin-3-yl)-1H-indole-2-carboxamide], the 50% effective concentration (EC50) was 0.777 µM.
For `O=C(Nc1cccc(F)c1)c1cc2cc(C3CCCNC3)ccc2[nH]1` (stereo not drawn) [Example 69, N-(3-Fluorophenyl)-5-(piperidin-3-yl)-1H-indole-2-carboxamide], a half-maximal effect (EC50) was put at 0.662 µM.
Consider `CCN1CCCC(c2ccc3[nH]c(C(=O)Nc4cccc(F)c4)cc3c2)C1` (stereo not drawn) [Example 70, 5-(1-Ethylpiperidin-3-yl)-N-(3-fluorophenyl)-1H-indole-2-carboxamide], for which the EC50 worked out at 0.81 µM.
In turn, `O=C(Nc1cccc(F)c1)c1cc2cc(C3CCCN(CC4CC4)C3)ccc2[nH]1` (stereo not drawn) [Example 71, 5-(1-(Cyclopropylmethyl)piperidin-3-yl)-N-(3-fluorophenyl)-1H-indole-2-carboxamide] showed an EC50 of 0.977 µM.
In the case of `O=C(Nc1cccc(F)c1)c1cc2cc(C3CCCN(C4CC4)C3)ccc2[nH]1` (stereo not drawn) [Example 72, 5-(1-Cyclopropylpiperidin-3-yl)-N-(3-fluorophenyl)-1H-indole-2-carboxamide], the EC50 came to 1.11 µM.
Turning to `O=C(Nc1cccc(F)c1)c1cc2cc(C3CCCN(CC(F)(F)F)C3)ccc2[nH]1` (stereo not drawn) [Example 73, N-(3-Fluorophenyl)-5-(1-(2,2,2-trifluoroethyl)piperidin-3-yl)-1H-indole-2-carboxamide], it took 9.29 µM to reach a half-maximal effect (EC50).
Consider `O=C(Nc1cncc(F)c1)c1cc2cc(C3CCN(Cc4ccccc4)C3)ccc2[nH]1` (stereo not drawn) [Example 74, 5-(1-Benzyl-pyrrolidin-3-yl)-1H-indole-2-carboxylic acid (5-fluoro-pyridin-3-yl)-amide], for which the EC50 came out at 1.86 µM.
The compound `O=C(Nc1cncc(F)c1)c1cc2cc(C3CCNC3)ccc2[nH]1` (stereo not drawn) [Example 75, N-(5-Fluoropyridin-3-yl)-5-(pyrrolidin-3-yl)-1H-indole-2-carboxamide] showed a concentration for a half-maximal effect (EC50) of 1.31 µM.
In turn, `CC(C)N1CCC(c2ccc3[nH]c(C(=O)Nc4cncc(F)c4)cc3c2)C1` (stereo not drawn) [Example 76, N-(5-Fluoropyridin-3-yl)-5-(1-isopropylpyrrolidin-3-yl)-1H-indole-2-carboxamide] yielded a concentration for a half-maximal effect (EC50) of 0.796 µM.
With `CC(C)OC(=O)N1CCC(c2ccc3[nH]c(C(=O)Nc4cncc(F)c4)cc3c2)C1` (stereo not drawn) [Example 77, isopropyl 3-(2-(5-fluoropyridin-3-ylcarbamoyl)-1H-indol-5-yl)pyrrolidine-1-carboxylate] the figure was 3.76 µM.
In turn, `C=CCCN1CCC(c2ccc3[nH]c(C(=O)Nc4cncc(F)c4)cc3c2)C1` (stereo not drawn) [Example 78, 5-(1-(But-3-enyl)pyrrolidin-3-yl)-N-(5-fluoropyridin-3-yl)-1H-indole-2-carboxamide] came in with an EC50 of 0.927 µM.
With `O=C(Nc1cncc(F)c1)c1cc2cc(C3CCN(CC4CC4)C3)ccc2[nH]1` (stereo not drawn) [Example 79, 5-(1-(Cyclopropylmethyl)pyrrolidin-3-yl)-N-(5-fluoropyridin-3-yl)-1H-indole-2-carboxamide], the concentration giving a half-maximal response (EC50) was determined as 0.981 µM.

Values taken from US20150274661A1, “INDOL-AMIDE COMPOUNDS AS BETA-AMYLOID INHBITORS” (Hoffmann-La Roche Inc., priority 2012, published 2015).
